Assay [1] has as its target T1, SIRT1 (Homo sapiens, UniProt Q96EB6).
T1 sequence (Q96EB6 1-747): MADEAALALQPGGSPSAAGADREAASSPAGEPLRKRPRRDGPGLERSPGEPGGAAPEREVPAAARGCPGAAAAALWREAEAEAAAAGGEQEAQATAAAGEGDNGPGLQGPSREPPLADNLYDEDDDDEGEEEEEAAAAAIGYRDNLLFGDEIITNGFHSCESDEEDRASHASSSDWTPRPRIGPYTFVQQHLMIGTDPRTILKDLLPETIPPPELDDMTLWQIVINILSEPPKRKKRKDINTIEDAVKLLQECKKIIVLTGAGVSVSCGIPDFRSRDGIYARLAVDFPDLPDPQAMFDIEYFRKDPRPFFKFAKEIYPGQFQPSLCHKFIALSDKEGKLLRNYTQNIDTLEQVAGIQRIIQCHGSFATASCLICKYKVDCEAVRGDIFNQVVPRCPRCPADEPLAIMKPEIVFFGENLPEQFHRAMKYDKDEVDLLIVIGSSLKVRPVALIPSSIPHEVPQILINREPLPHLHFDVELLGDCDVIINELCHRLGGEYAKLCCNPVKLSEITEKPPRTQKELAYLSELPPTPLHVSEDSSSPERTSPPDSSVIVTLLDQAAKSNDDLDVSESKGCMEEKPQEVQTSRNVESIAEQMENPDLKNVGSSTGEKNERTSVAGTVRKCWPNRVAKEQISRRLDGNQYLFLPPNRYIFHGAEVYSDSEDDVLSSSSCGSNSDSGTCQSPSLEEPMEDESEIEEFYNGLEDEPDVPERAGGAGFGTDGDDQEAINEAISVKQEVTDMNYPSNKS
Description: Mass spectrometry based assay to identify modulators of SIRT1 activity (deacetylation of p53-based acetylated peptide substrate). It is filed as biochemical. The conditions noted are these: for Emax: 25 min, SIRT1 activation, read-out: % FOLD ACT. (percent maximum fold activation). The method in brief:
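His-tagged human SIRT1 (10 nM, E. coli) incubated 25 min at 25 °C with […] p53-derived acetylated 5TMR peptide and 120 μM βNAD+ in pH 8 Tris-acetate buffer, then formic acid-stopped. Mass spectrometry quantifies acetylated vs deacetylated peptide; nicotinamide and DMSO controls.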

The subject of assay [2] is TNF. Description: TNF IC50 (column of Table 1; method not in the text shown). It is filed as cell-based.

The IC50 is the concentration that gives 50% inhibition. `Cc1cc(NC(=O)N2CCOc3cnc(-c4cccc(C(F)(F)F)c4)nc32)cc(C)n1` [Compound 711]: in assay [1], the EC1.5 (concentration giving 1.5-fold activation) is less than 1000 nM and the Emax was more than 200%. Moreover, the IC50 in assay [2] was not below 20 µM.
The corresponding values for `CC1(C)CCN(C(=O)Nc2ccnc(OC[C@H](O)CO)n2)c2nc(-c3cccc(C(F)(F)F)c3)ccc21` [Compound 845] are less than 1000 nM, more than 200% and less than 20 µM.
Taken in the same sequence, the figures for `CC1CCN(C(=O)Nc2ccncn2)c2nc(-c3cccc(C(F)(F)F)c3)ccc21` (stereo not drawn) [Compound 805] were less than 1000 nM, more than 200% and less than 20 µM.
Taken in the same sequence, the figures for `Cc1cncc(NC(=O)N2CC(C)(C)Oc3ccc(-c4cccc(N5CC[C@@H](F)C5)c4)nc32)c1` [Compound 701, (R)-6-(3-(3-fluoropyrrolidin-1-yl)phenyl)-2,2-dimethyl-N-(5-methylpyridin-3-yl)-2H-pyrido[3,2-b][1,4]oxazine-4(3H)-carboxamide] were less than 1000 nM, more than 200% and less than 20 µM.
Turning to `Cc1csc(NC(=O)N2CCC(C)c3ccc(-c4cccc(C(F)(F)F)c4)nc32)n1` (stereo not drawn) [Compound 787], in assay [1], the EC1.5 (concentration giving 1.5-fold activation) was less than 1000 nM and the Emax is more than 200%. The compound also showed an IC50 in assay [2] not below 20 µM.
Taken in the same sequence, the figures for `N#Cc1cccc(-c2ccc3c(n2)N(C(=O)Nc2cccc(OC[C@H](O)CO)n2)CCC3)c1` [Compound 700] were less than 1000 nM, more than 200% and less than 20 µM.
As for `CC1(C)CCN(C(=O)Nc2cccc(OC[C@@H](O)CO)n2)c2nc(-c3cccc(C(F)(F)F)c3)ccc21` [Compound 840], in assay [1], the EC1.5 (concentration giving 1.5-fold activation) was less than 1000 nM and the Emax is more than 200%. The same compound yielded an IC50 in assay [2] of less than 20 µM.
The corresponding values for `O=C(Nc1ccc2nccn2c1)N1CCCOc2ccc(-c3cccc(Cl)c3)nc21` [Compound 880] are less than 1000 nM, more than 200% and less than 20 µM.
Taken in the same sequence, the figures for `O=C(Nc1cc(OCC(O)CO)ccn1)N1CCc2ccc(-c3cccc(C(F)(F)F)c3)nc21` (stereo not drawn) [Compound 875] were less than 1000 nM, more than 200% and less than 20 µM.
As for `O=C(Nc1cccnc1)N1CCCc2ccc(-c3cccnc3)nc21` [Compound 886], in assay [1], the EC1.5 (concentration giving 1.5-fold activation) was 1000 to 25000 nM and the Emax was more than 200%. For the same compound, the IC50 in assay [2] is not below 20 µM.
